Numbered stars: 1 amine (or outer) side, 2 acyl side, 3 side chain; on linkers, the order of the positions; unused ones are H or OH. Bridge positions count the residues as written; N and C are the ends. Square brackets hold non-standard residues; d marks the D form. Peptide text beside a SMILES is read from it. N(2-Aminoethyl)Gly = O=C(CN(CCN[*:3])[*:1])[*:2]; CO = O=C([*:1])[*:2]; Nlys = NCCCCNCC(=O)O
Tests used:
[1] = Immunogenicity, antibody titer by ELISA in BALB/c mice; assay type: in vivo, BALB/c male mice; details: 40 days, Figure 8
Description: Figure 8 Antibody titer test in BALB/c mice, 40 days post intraperitoneal administration with natalizumab (18 mg/kg), visabron c (2–2) (150 mg/kg) alone, and administered together with Complete Freund’s Adjuvant (visabron c (2–2) + CFA), as compared to preimmune control serum. The results represent the mean ± SEM (n = 6) of optical absorbance (OD 490 nm) in ELISA. *p ≤ 0.01 compared to control.
BALB/c male mice, aged 60 days (22 gr) were divided into three groups each containing six mice. The mice were immunized intraperitoneal with 0.5 mL of Visabron c (2–2) (150 mg/kg), 0.25 mL Visabron c (2–2) (150 mg/kg) + 0.25 mL of Freund‘s complete adjuvant, and 0.25 mL natalizumab (18 mg/kg). After 14 days of the first inoculation, the mice received a booster with 0.5 mL of the preparations mentioned above. To verify the presence of antibodies against visabron c (2–2) or natalizumab, the serum collected from mice tail blood was tested 40 days after the first inoculation by indirect ELISA using visabron c (2–2) or natalizumab antigens immobilized to the plate (25 μg per well, diluted in 20 mM carbonate buffer, pH 9.6 overnight incubated at 4 °C). […] The reaction was stopped with 12.5% H2SO4, and absorbance was measured at 490 nm. The results were considered significant when the absorbance was at least two times higher than that obtained with the preimmune serum.

LynA = target: T1, LynA (Homo sapiens, UniProt P07948); test: PhosphoSens CSox-based kinase assay, LynA; assay type: biochemical; details: 1 mM, but not 0.1 mM; Figure 7
T1 construct: purchased Carna 08-171
T1 sequence (P07948 whole entry): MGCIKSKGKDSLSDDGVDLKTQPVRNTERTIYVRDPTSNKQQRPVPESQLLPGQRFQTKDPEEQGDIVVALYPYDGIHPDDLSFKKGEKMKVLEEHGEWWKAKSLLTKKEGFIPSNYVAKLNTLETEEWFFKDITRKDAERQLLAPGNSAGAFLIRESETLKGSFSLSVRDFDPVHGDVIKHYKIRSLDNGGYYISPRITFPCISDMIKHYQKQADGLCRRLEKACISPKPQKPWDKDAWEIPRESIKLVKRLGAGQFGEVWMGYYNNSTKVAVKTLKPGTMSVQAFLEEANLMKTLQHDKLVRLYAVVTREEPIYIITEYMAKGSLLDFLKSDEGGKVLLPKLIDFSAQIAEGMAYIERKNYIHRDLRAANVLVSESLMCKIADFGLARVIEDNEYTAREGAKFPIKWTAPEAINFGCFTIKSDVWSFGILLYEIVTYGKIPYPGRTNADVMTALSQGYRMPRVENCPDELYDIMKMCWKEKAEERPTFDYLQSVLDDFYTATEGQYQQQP
Description: (§1) Kinase activity was measured using the PhosphoSenstechnology (AssayQuant Technologies Inc., Marlborough, MA) as detailed in the Supporting Information. […]
(§2) Visabron c (4-4) safety by in vitro evaluation using PhosphoSens - CSox based kinase assays:
(§3) A powerful method was used to measure the activity of recombinant protein kinases using a homogeneous and continuous (kinetic) format, where the level of chelation-enhanced fluorescence (CHEF) that is directly proportional to the amount of phosphorylated, real-time sensors consisting of sulfonamido-oxine (Sox) chromophore, linked to a peptide or protein substrates of selective kinases 6. […]
(§4) Kinase activity measurements: Kinase activity was measured continuously using the PhosphoSens® technology (AssayQuant Technologies Inc., Marlborough, MA) according to the manufacturers’ recommendations. This one-step homogeneous assay format uses chelation -enhanced fluorescence via optimized substrate sensors containing the unnatural fluorogenic amino -acid Sox. […]
(§5) Final reaction conditions : Protein kinase activity was determined in 54 mM HEPES, pH 7.5, 1 mM ATP, 1.2 mM DTT, 0.012% Brij-35, 0.52 mM EGTA, 10 mM MgCl2, 1% glycerol, 0.2mg/ml BSA, and 15 μM Sox -based sensor. […]

Abl = target: T2, Abl (Homo sapiens, UniProt P00519); test: PhosphoSens CSox-based kinase assay, Abl; assay type: biochemical; details: 1 mM, but not 0.1 mM; Figure 7
T2 construct: purchased Carna 08-001
T2 sequence (P00519 whole entry): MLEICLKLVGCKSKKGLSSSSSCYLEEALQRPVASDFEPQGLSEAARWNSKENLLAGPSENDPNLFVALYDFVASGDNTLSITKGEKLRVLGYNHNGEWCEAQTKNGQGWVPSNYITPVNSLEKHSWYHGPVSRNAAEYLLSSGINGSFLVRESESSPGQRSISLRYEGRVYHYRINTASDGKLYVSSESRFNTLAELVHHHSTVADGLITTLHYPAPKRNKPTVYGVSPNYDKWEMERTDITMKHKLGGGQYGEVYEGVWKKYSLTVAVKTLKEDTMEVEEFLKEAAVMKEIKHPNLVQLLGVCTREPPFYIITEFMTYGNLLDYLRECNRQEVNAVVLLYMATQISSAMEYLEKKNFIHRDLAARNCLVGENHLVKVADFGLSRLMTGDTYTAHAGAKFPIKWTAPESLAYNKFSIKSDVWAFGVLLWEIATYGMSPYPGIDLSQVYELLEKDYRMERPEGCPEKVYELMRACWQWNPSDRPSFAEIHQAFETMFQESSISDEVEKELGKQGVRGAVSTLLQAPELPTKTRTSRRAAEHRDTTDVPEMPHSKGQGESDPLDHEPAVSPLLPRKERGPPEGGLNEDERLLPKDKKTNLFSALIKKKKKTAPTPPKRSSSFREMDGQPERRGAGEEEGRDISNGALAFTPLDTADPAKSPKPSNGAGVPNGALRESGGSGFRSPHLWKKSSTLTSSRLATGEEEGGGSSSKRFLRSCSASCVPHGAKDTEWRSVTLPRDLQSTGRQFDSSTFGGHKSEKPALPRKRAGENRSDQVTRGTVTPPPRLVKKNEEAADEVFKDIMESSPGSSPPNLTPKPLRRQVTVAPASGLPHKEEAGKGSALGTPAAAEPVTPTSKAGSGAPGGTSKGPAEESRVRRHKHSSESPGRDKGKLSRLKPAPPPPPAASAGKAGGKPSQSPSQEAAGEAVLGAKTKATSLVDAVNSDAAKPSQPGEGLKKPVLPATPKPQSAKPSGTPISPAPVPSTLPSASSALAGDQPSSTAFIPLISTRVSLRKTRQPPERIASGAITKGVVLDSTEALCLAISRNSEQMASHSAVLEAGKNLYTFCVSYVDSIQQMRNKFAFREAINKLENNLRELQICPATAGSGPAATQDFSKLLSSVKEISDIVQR
Description: as §1, §2, §3, §4, §5

[2] = system: panel of 20 tyrosine protein kinases of immune cells; assay type: biochemical; details: concentration a hundred-fold higher than the IC50 for inhibition of α4β1 integrin (0.1 mM)
Description: as §1, §2, §3, §4, §5

| SMILES | Antibody production (ELISA vs preimmune serum) ([1]; 150 mg/kg intraperitoneal alone) | Antibody production (ELISA vs preimmune serum) ([1]; 150 mg/kg intraperitoneal together with Freund's complete adjuvant) | inhibition at 1000 µM (LynA) [%] | inhibition at 1000 µM (Abl) [%] | Targeting of leukocyte tyrosine protein kinases [2] |
| --- | --- | --- | --- | --- | --- |
| CSCC[C@@H]1NC(=O)[C@H]([C@@H](C)O)NC(=O)CN(C(=O)[C@@H](N)CCCCN)CCNC(=O)NCCN(CC(=O)N[C@@H](CC(C)C)C(N)=O)C(=O)[C@H](CC(=O)O)NC(=O)[C@H](CC(C)C)NC1=O [visabron c (2–2)] (H-K[N(2-Aminoethyl)Gly]TMLD[N(2-Aminoethyl)Gly]L-NH2; linker 2-7 via CO) | did not induce antibody production | did not induce antibody production | – | – | – |
| CSCC[C@@H]1NC(=O)[C@H]([C@@H](C)O)NC(=O)CN(C(=O)[C@@H](N)CCCCN)CCCCNC(=O)NCCCCN(CC(=O)N[C@@H](CC(C)C)C(N)=O)C(=O)[C@H](CC(=O)O)NC(=O)[C@H](CC(C)C)NC1=O [visabron c (4–4)] (H-K[Nlys]TMLD[Nlys]L-NH2; linker 2-7 via CO) | – | – | 25 to 40 | 25 to 40 | did not target |

From PMC8717366, “Synthesis and Pharmacological Characterization of Visabron, a Backbone Cyclic Peptide Dual Antagonist of α4β1 (VLA-4)/α9β1 Integrin for Therapy of Multiple Sclerosis” (JACS Au, 2021)
